Experiments:
[1] = system: B. contaminans FFH-2050MA; type: cell-based, Burkholderia contaminans; settings: B. contaminans FFH-2050MA
B. multivorans ATCC17616 = type: cell-based, Burkholderia multivorans; settings: B. multivorans ATCC17616
B. cenocepacia K56-2 = type: cell-based, Burkholderia cenocepacia; settings: B. cenocepacia K56-2; CAMHB, 18 h, 37 °C
B. lata BCC6 = type: cell-based, Burkholderia lata; settings: B. lata BCC6
B. dolosa CEP021 = type: cell-based, Burkholderia dolosa; settings: B. dolosa CEP021
B. ubonensis LMG 20358 = type: cell-based, Burkholderia ubonensis; settings: B. ubonensis LMG 20358
B. cenocepacia 140485 = type: cell-based, Burkholderia cenocepacia; settings: B. cenocepacia 140485
B. contaminans FFH-4004 = type: cell-based, Burkholderia contaminans; settings: B. contaminans FFH-4004
B. contaminans MF16 = type: cell-based, Burkholderia contaminans; settings: B. contaminans MF16
[2] = system: B. cenocepacia K56-2 persister cells; test: Time kill of persister cells generated with ciprofloxacin; type: cell-based, Burkholderia cenocepacia; settings: in PBS, 3 h; MS-40S/MS-40 2× and 4× MIC, ciprofloxacin 5× MIC

CC[P+](CC)(CC)[Au-][S][C@@H]1O[C@H](CO)[C@@H](O)[C@H](O)[C@H]1O [WB-18-FI3683]
> 128 µg/mL: MIC (B. cenocepacia K56-2) | MIC (B. dolosa CEP021) | MIC (B. ubonensis LMG 20358) | MIC (B. contaminans FFH-4004)
128 µg/mL: MIC [1] | MIC (B. multivorans ATCC17616) | MIC (B. lata BCC6) | MIC (B. contaminans MF16)
64 µg/mL: MIC (B. cenocepacia 140485)

CC(=O)N[C@@H]1[C@@H](O)[C@H](O)[C@@H](CO)O[C@H]1[S][Au-][P+](C)(C)C [WB-19-HB2664]
64 µg/mL: MIC [1]
128 µg/mL: MIC (B. multivorans ATCC17616) | MIC (B. lata BCC6) | MIC (B. ubonensis LMG 20358) | MIC (B. cenocepacia 140485) | MIC (B. contaminans FFH-4004) | MIC (B. contaminans MF16)
> 128 µg/mL: MIC (B. cenocepacia K56-2) | MIC (B. dolosa CEP021)

CC(=O)OC[C@H]1O[C@@H]([S][Au-][P+](C)(C)C)[C@H](OC(C)=O)[C@@H](OC(C)=O)[C@@H]1OC(C)=O [WB-19-HG5899]
64 µg/mL: MIC [1]
128 µg/mL: MIC (B. multivorans ATCC17616) | MIC (B. lata BCC6) | MIC (B. ubonensis LMG 20358) | MIC (B. cenocepacia 140485) | MIC (B. contaminans FFH-4004) | MIC (B. contaminans MF16)
> 128 µg/mL: MIC (B. cenocepacia K56-2) | MIC (B. dolosa CEP021)

CP(C)C.CP(C)C.F[P-](F)(F)(F)(F)F.[Au+] [WB-19-HL4121a]
32 µg/mL: MIC [1] | MIC (B. lata BCC6) | MIC (B. cenocepacia 140485) | MIC (B. contaminans MF16)
128 µg/mL: MIC (B. cenocepacia K56-2) | MIC (B. dolosa CEP021) | MIC (B. ubonensis LMG 20358)
64 µg/mL: MIC (B. multivorans ATCC17616) | MIC (B. contaminans FFH-4004)

C[P+](C)(C)[Au-][S]CCCO [WB-19-HL4172]
32 µg/mL: MIC (B. multivorans ATCC17616) | MIC (B. cenocepacia K56-2) | MIC (B. dolosa CEP021) | MIC (B. ubonensis LMG 20358) | MIC (B. cenocepacia 140485) | MIC (B. contaminans FFH-4004) | MIC (B. contaminans MF16)
16 µg/mL: MIC [1] | MIC (B. lata BCC6)

C[P+](C)(C)[Au-][S]CCN [WB-19-HL4181]
64 µg/mL: MIC (B. dolosa CEP021) | MIC (B. contaminans MF16)
16 µg/mL: MIC (B. lata BCC6)
32 µg/mL: MIC [1] | MIC (B. multivorans ATCC17616) | MIC (B. cenocepacia K56-2) | MIC (B. ubonensis LMG 20358) | MIC (B. cenocepacia 140485) | MIC (B. contaminans FFH-4004)

O=C(O)c1cn(C2CC2)c2cc(N3CCNCC3)c(F)cc2c1=O [ciprofloxacin, reference compound]
not killed: killing of ciprofloxacin-generated persister cells [2]

Source: paper PMC8697972, “New Auranofin Analogs with Antibacterial Properties against Burkholderia Clinical Isolates” (Antibiotics, 2021)
